Experimental data as given in US20180201592A1, “2-AMINO-1,3,4-THIADIAZINE AND 2-AMINO-1,3,4-OXADIAZINE BASED ANTIFUNGAL AGENTS” (F2G Limited, priority 2015, published 2018).

Assays:
Settings in all cases: banded MIC grade
Aspergillus terreus = assay: Minimum inhibitory concentration, YAG medium; format: cell-based
How it was run: (§1)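 Twofold aqueous dilution series, prepared from a DMSO stock (5 mg/mL), were inoculated with Aspergillus spp. spores; incubation lasted 24 hrs at 35° C before OD 485 nm readings.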

Aspergillus flavus = assay: Minimum inhibitory concentration, YAG medium; format: cell-based
How it was run: as §1

Aspergillus niger = assay: Minimum inhibitory concentration, YAG medium; format: cell-based
How it was run: as §1

A. niger = assay: Minimum inhibitory concentration, RPMI medium; format: cell-based
How it was run: (§2)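 Incubated at 35° C for 24-48 hrs in RPMI 1640 with twofold water dilutions of compound (from 5 mg/mL stock in DMSO); absorbance at 485 nm indicated growth.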

C. tropicalis = assay: Minimum inhibitory concentration, RPMI medium; format: cell-based
How it was run: as §2

C. parapsilosis = assay: Minimum inhibitory concentration, RPMI medium; format: cell-based
How it was run: as §2

C. glabrata = assay: Minimum inhibitory concentration, RPMI medium; format: cell-based
How it was run: as §2

C. albicans = assay: Minimum inhibitory concentration, RPMI medium; format: cell-based
How it was run: as §2

A. terreus 49 [1] = assay: Minimum inhibitory concentration, RPMI medium; format: cell-based
How it was run: as §2

A. flavus = assay: Minimum inhibitory concentration, RPMI medium; format: cell-based
How it was run: as §2

C. krusei = assay: Minimum inhibitory concentration, RPMI medium; format: cell-based
How it was run: as §2

A. terreus = assay: Minimum inhibitory concentration, RPMI medium; format: cell-based
How it was run: as §2

A. fumigatus 210 [2] = assay: Minimum inhibitory concentration, YAG medium; format: cell-based, Aspergillus fumigatus
How it was run: (§3)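 Testing uses spores harvested after 5 days on Sabouraud agar, grown 24 hrs at 35° C in glucose/ammonium chloride/yeast extract (YAG) medium against twofold drug dilutions. Optical density at 485 nm defines MIC as >70% growth reduction compared with drug-free wells.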

Aspergillus fumigatus = assay: Minimum inhibitory concentration, YAG medium; format: cell-based
How it was run: as §3

A. terreus 49 [3] = assay: Minimum inhibitory concentration, YAG medium; format: cell-based, Aspergillus terreus
How it was run: as §1

A. fumigatus 210 [4] = assay: Minimum inhibitory concentration, RPMI medium; format: cell-based
Protocol: (§4) Between 1 and 5 mgs of compound were accurately weighed out into a sterile Eppendorf tube. The compound was dissolved in DMSO to give a solution containing 5 mg/mL. Tubes were stored at −20° C. until required.
(§5) On the day of testing thawed solutions were vortex mixed to ensure homogeneity. 30 μL of solution was removed and added to 570 μL of sterile water in a separate sterile Eppendorf. The thoroughly mixed solution was used to prepare a series of doubling dilutions in water, in a deep well plate. Thirteen replicate plates were prepared using a Minitrak by aspirating 20 μL from each well into eleven clear polystyrene 96 well plates.
(§6) Assays were also performed in RPMI medium (Roswell Park Memorial Media 1640). To perform MIC tests in this medium, dilutions of compounds are prepared in microtitre plates as described above. Fungal strains to be tested are grown and harvested in an identical manner to that described above, and each organism suspension was diluted in RPMI medium, typically containing 2% glucose and 0.135 M MOPS buffer (pH 7.0) to 0.5-2×10^4cfu/mL, rather than in YAG medium. 80 μL of an organism suspension was added to each well of the plate containing drug dilutions.
(§7) This produced MIC plates with a drug range 50-0.05 mg/L and organism inocula of 1-2×10^4 cfu/mL. All plates were incubated for 24-48 hrs at 35° C. Growth was assessed by monitoring the optical density at 485 nm for each well. The MIC of a compound is the lowest drug concentration that inhibits growth of an organism by >80% compared with a drug free control. The following organisms were tested: C. albicans, C. parapsilosis, C. tropicalis, C. glabrata, C. krusei, A. niger, A. fumigatus, A. terreus, A. flavus, A. terreus 49, and A. fumigatus 210.

A. fumigatus = assay: Minimum inhibitory concentration, RPMI medium; format: cell-based
Protocol: as §4, §5, §6, §7

SMILES	MIC grade, A. TERREUS, YAG media (Aspergillus terreus)	MIC grade, A. FLAVUS, YAG media (Aspergillus flavus)	MIC grade, A. NIGER, YAG media (Aspergillus niger)	MIC grade, A. NIGER, RPMI media (A. niger)	MIC grade, C. TROPICALIS, RPMI media (C. tropicalis)	MIC grade, C. PARAPSILOSIS, RPMI media (C. parapsilosis)	MIC grade, C. GLABRATA, RPMI media (C. glabrata)	MIC grade, C. ALBICANS, RPMI media (C. albicans)	MIC grade, A. TERREUS 49, RPMI media (A. terreus 49 [1])	MIC grade, A. FLAVUS, RPMI media (A. flavus)	MIC grade, C. KRUSEI, RPMI media (C. krusei)	MIC grade, A. TERREUS, RPMI media (A. terreus)	MIC grade, A. FUMIGATUS 210, YAG media (A. fumigatus 210 [2])	MIC grade, A. FUMIGATUS, YAG media (Aspergillus fumigatus)	MIC grade, A. TERREUS 49, YAG media (A. terreus 49 [3])	MIC grade, A. FUMIGATUS 210, RPMI media (A. fumigatus 210 [4])	MIC grade, A. FUMIGATUS, RPMI media (A. fumigatus)
NC1=NN=C(CCCCOCc2ccccc2C(F)(F)F)CS1	2 (2: 1-5 mg/L)	2 (2: 1-5 mg/L)	3 (3: 0.2-1 mg/L)	1 (1: ≥20 mg/L)	2 (2: 5-20 mg/L)	1 (1: ≥20 mg/L)	1 (1: ≥20 mg/L)	2 (2: 5-20 mg/L)	1 (1: ≥20 mg/L)	1 (1: ≥20 mg/L)	2 (2: 5-20 mg/L)	1 (1: ≥20 mg/L)	2 (2: 1-5 mg/L)	3 (3: 0.2-1 mg/L)	2 (2: 1-5 mg/L)	1 (1: ≥20 mg/L)	1 (1: ≥20 mg/L)
NC1=NN=C(CCCCOCc2cccc(-c3ccccc3)c2)CS1	2 (2: 1-5 mg/L)	2 (2: 1-5 mg/L)	2 (2: 1-5 mg/L)	1 (1: ≥20 mg/L)	2 (2: 5-20 mg/L)	2 (2: 5-20 mg/L)	1 (1: ≥20 mg/L)	2 (2: 5-20 mg/L)	1 (1: ≥20 mg/L)	2 (2: 5-20 mg/L)	2 (2: 5-20 mg/L)	2 (2: 5-20 mg/L)	1 (1: ≥5 mg/L)	1 (1: ≥5 mg/L)	2 (2: 1-5 mg/L)	1 (1: ≥20 mg/L)	1 (1: ≥20 mg/L)
NC1=NN=C(CCCCOCc2cc(Cl)cc(Cl)c2)CS1	3 (3: 0.2-1 mg/L)	4 (4: <0.2 mg/L)	3 (3: 0.2-1 mg/L)	2 (2: 5-20 mg/L)	2 (2: 5-20 mg/L)	3 (3: 1-5 mg/L)	2 (2: 5-20 mg/L)	2 (2: 5-20 mg/L)	2 (2: 5-20 mg/L)	2 (2: 5-20 mg/L)	2 (2: 5-20 mg/L)	2 (2: 5-20 mg/L)	2 (2: 1-5 mg/L)	3 (3: 0.2-1 mg/L)	3 (3: 0.2-1 mg/L)	1 (1: ≥20 mg/L)	2 (2: 5-20 mg/L)
CCCCc1ccc(COCCCCC2=NN=C(N)SC2)cc1	2 (2: 1-5 mg/L)	3 (3: 0.2-1 mg/L)	3 (3: 0.2-1 mg/L)	2 (2: 5-20 mg/L)	2 (2: 5-20 mg/L)	3 (3: 1-5 mg/L)	2 (2: 5-20 mg/L)	2 (2: 5-20 mg/L)	1 (1: ≥20 mg/L)	2 (2: 5-20 mg/L)	3 (3: 1-5 mg/L)	1 (1: ≥20 mg/L)	1 (1: ≥5 mg/L)	1 (1: ≥5 mg/L)	2 (2: 1-5 mg/L)	1 (1: ≥20 mg/L)	1 (1: ≥20 mg/L)
